Test results published in patent US10827753B2, “Compositions and methods for controlling nematodes” (Monsanto Technology LLC, priority 2007, dated 2020).
Where two headings read alike, the source gives them in different places. Marks after values point to notes of the source that are not given here.

How the values were obtained:
[1] = system: soybean cyst nematode (SCN); assay: SCN greenhouse sand assay on soybean plants; format: in vivo, Heterodera glycines
Source text: Soybeans seeds are planted in 100% sand in two inch square plastic pots.
Chemical treatment is done when the soybeans show the first trifoliate beginning to emerge about 10 to 12 days after planting. At least four hours after chemical application the nematode soybean cyst nematode (SCN) eggs are applied and 28 days after the egg inoculation the test is harvested.
One milligram of chemistry per four pots is equal to one kilogram per hectare of chemical. A standard test uses four replications. For rates above 2 kg/ha, the desired amount of chemical is weighed into a 30 ml vial (example: 8 kg/ha rate=8 mg chemical in 30 ml vial). The chemical is dissolved in 2 ml of appropriate solvent, generally acetone. For rates below 2 kg/ha, 2 milligrams of chemistry is weighed into the vial and dissolved in 2 ml of the solvent. The appropriate amount of chemical concentrate is then pipetted into a separate 30 ml vial and solvent is added to bring the volume to 2 ml (example 0.5 kg/ha=0.5 ml of concentrate+1.5 ml solvent). Each dissolved concentrate is then brought to a total of 20 milliliters using 0.05% Triton X 100 surfactant solution.
Pots to be treated are moist but not saturated. To each of four pots, five milliliters of the appropriate chemical solution is pipetted to the media surface making sure to avoid contact with the base of the plant. Immediately following chemical application, using a mist nozzle, the pot surface is wetted sufficiently to saturate the pot watering in the chemistry. The chemical application is done in the morning.
Nematode eggs, either SCN or RKN, are added to distilled water to create a concentration of 1000 vermiform eggs […]. At least four hours after chemical treatment the eggs are applied to the treated pots plus non-treated check plants. A small hole about 1 cm deep is punched into the pot surface. One milliliter of the nematode egg slurry is pipetted into the hole. Immediately afterwards the hole is gently covered. Watering of the test plants is then restricted to only water as needed to prevent wilt for a period of 24 hours. After the 24 hour restricted watering, normal sub-irrigation watering is done for the duration of the test.

[2] = system: sting (Belonolaimus longicaudatus) nematodes; assay: Sting nematode bench top soil assay; format: in vivo
Protocol: Populations of sting (Belonolaimus longicaudatus) nematodes are maintained on St. Augustine turf grass on soil in 15-cm pots. At test initiation the turf is removed from the pots and the soil containing nematode eggs, juveniles, and adults is subdivided into pots each containing a volume of 125 cm^3′ The compounds to be tested are dissolved in 3 ml of acetone using 3, 6, or 15 mg to achieve equivalent surface area application rates of 2, 4, or 10 kg/ha, respectively. The 3 ml acetone stock solution is added to 30 ml of water, and 5 ml of that solution is used to drench each of 6 replicate test pots prepared as described above. The treated pots containing nematodes are incubated in the laboratory at ambient temperature of approximately 25° C. After 3 days the soil from each pot is washed onto a modified Baermann apparatus comprised of a screen supporting a layer of filter paper on which the soil sample is placed and set in a dish of water. The samples are then incubated at 25° C. for 24 hours to allow the live nematodes to migrate through the paper and screen and into a water reservoir to be collected for counting with a light microscope. Nematodes that have been killed or immobilized by the test compounds are not able to migrate into the reservoir.

[3] = system: mice; settings: cited from earlier work
[4] = system: CD-1/Swiss derived albino mice; format: in vivo; settings: for mortality, signs of gross toxicity and behavioral changes: three female mice, observed up to 14 days
Protocol: Acute oral toxicity testing was performed in mice in accordance with test method P203.UDP, as administered by Eurofins/Product Safety Laboratories (Dayton, N.J.). CD-1/Swiss derived albino mice were obtained and group housed in suspended solid bottom caging. The mice were fed rodent chow and filtered tap water was supplied ad libitum. Following acclimation to the laboratory setting, a group of animals was fasted overnight by removing food from the cages. After the fasting period, three female mice were selected based on vitality and initial body weights. The individual compound doses were calculated from these body weights.
The test substance was prepared as a 1% (50 mg/kg) or 5% (500 mg/kg) weight to weight (w/w) mixture in a 0.5% w/w solution of carboxymethylcellulose (CMC) in distilled water. A tissue homogenizer was used to create a homogeneous mixture. A dose of 50 or 500 mg/kg was administered to three healthy mice per dose level by oral intubation using a ball-tipped gavage needle attached to a syringe. After administration, the animals were returned to their cages, and feed was replaced immediately after dosing.
Body weights were recorded prior to initiation and on Days 7 and 14 or a soon as possible after death.

[5] = system: Meloidogyne incognita (RKN); assay: Seed treatment test of root knot nematode on cucumber plants; format: in vivo; settings: 20 mg ai/gram seed, cucumber seeds
Protocol: For a given concentration the chemical is dissolved in 500 ul of acetone and one gram of cucumber seed (RKN test) or soybean seed (SCN test) is added (e.g., 20 mg active ingredient in 500 ul acetone plus 1 gram of seed). The seed solutions are agitated until all seeds were thoroughly covered with the chemical solution. The acetone is then allowed to evaporate by air drying the seeds. The seeds are planted in 2-inch pots containing sandy soil and then the pots are inoculated with 1000 Meloidogyne incognita (RKN) or 1000 Heterodera glycines (SCN) eggs per pot three days after planting. Plants are rated for galling 14 days after egg inoculation for RKN or 28 days after egg inoculation for SCN.

[6] = system: caspase-3 in rat hepatoma derived H4IIE cells; assay: Caspase-3 activity (DEVD-AMC) after compound exposure in H4IIE cells; format: cell-based; settings: concentrations up to 300 μM
Protocol: Caspase 3 cleaves the tetrapeptide between D and AMC, thus releasing the fluorogenic […] AMC. Following the test article exposure to cells in 96-well plates, medium was aspirated from plates and PBS added to each well. Plates were stored at −80° C. to lyse cells and store samples until further analysis. On the day of analysis, plates were removed from freezer and thawed. Caspase buffer with fluorescent substrate was added to each well and incubated at room temperature for one hour. AMC release was measured in a spectrofluorometer at an excitation wavelength of 360 nm and an emission wavelength of 460 nm. Values are expressed as relative fluorescent units (RFU).

CCOP(=O)(NC(C)C)Oc1ccc(SC)c(C)c1 (stereo not drawn) [Fenamiphos, fenamiphos, reference compound]
percent control (cyst number reduction) relative to the control blank treatment ([1]; 0.1 kg/ha, test d): 5^d percent | percent control (cyst number reduction) relative to the control blank treatment ([1]; 0.25 kg/ha, test d): 26^d percent | percent control (cyst number reduction) relative to the control blank treatment ([1]; 1 kg/ha, test a): 98^a percent | percent control (cyst number reduction) relative to the control blank treatment ([1]; 1 kg/ha, test b): 98^b percent | percent control (cyst number reduction) relative to the control blank treatment ([1]; 1 kg/ha, test c): 94^c percent | Number of nematodes recovered from treated soil after 3 days incubation with the compound ([2]; Other: 11.1 kg fenamiphos as positive control): 20 | oral LD50 in mice [3]: 22.7 mg/kg

c1ccc(-c2noc(-c3cccs3)n2)cc1 [compound 1822]
mortality, signs of gross toxicity and behavioral changes ([4]; 50 mg/kg oral): all animals survived, gained body weight, and appeared active and healthy | mortality, signs of gross toxicity and behavioral changes ([4]; 500 mg/kg oral): all animals died within three days | percent control (galling reduction) relative to the control blank treatment [5]: 76% | induction of caspase-3 (apoptosis marker) [6]: no induction of caspase-3

Brc1ccc(-c2cnc(-c3cccs3)o2)cc1 [compound 4776]
Number of nematodes recovered from treated soil after 3 days incubation with the compound ([2]; 2 kg/ha): 16 | Number of nematodes recovered from treated soil after 3 days incubation with the compound ([2]; 4 kg/ha): 19 | Number of nematodes recovered from treated soil after 3 days incubation with the compound ([2]; 10 kg/ha): 20 | mortality, signs of gross toxicity and behavioral changes ([4]; 500 mg/kg oral): two animals died within three days | oral toxicity ([4]; mice, oral, estimate based on the 50 and 500 mg/kg studies): lower than 500 mg/kg | percent control (galling reduction) relative to the control blank treatment [5]: 58%

Cc1cc(Cl)ccc1-c1noc(-c2ccco2)n1 [compound 5823]
induction of caspase-3 (apoptosis marker) [6]: no induction of caspase-3
